One experiment has as its system Uromyces phaseoli. As to the kind of experiment: Bean rust fungus eradicant test (URO PHA). As to conditions: pinto bean, eradicant spray 2 days after inoculation, 1,000 mg/l; for pest or weed control at 1000 µg/mL: Uromyces phaseoli, 216 h, read-out: Percent Reduction of Disease, URO PHA. It counts as in vivo. The essentials: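 Seven-day-old pinto bean plants (Phaseolus vulgaris, primary leaf) were inoculated with 20,000 spores/ml, held 24 h at 99% humidity and 21° C., then sprayed two days post-inoculation with acetone/TWEEN 20 emulsions at 1,000 mg/l. After nine days in a 21° C. greenhouse, disease was scored as percent reduction versus unsprayed controls.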

In another experiment the test system is Erysiphe polygoni. As to the kind of experiment: Powdery mildew on pinto bean, foliar application (ERY POL). Type of experiment: in vivo. The settings on record: similar procedure as barley (1,000 mg/l); for pest or weed control at 1000 µg/mL: Erysiphe polygoni, read-out: Percent Reduction of Disease, ERY POL. The procedure, abridged:
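Pinto bean plants sprayed with compound emulsion (acetone or inert solvent, TWEEN 20, water) at 1,000 mg/l, or left unsprayed, dried, then inoculated with Erysiphe polygoni spores in a 21° C greenhouse. Disease scored; percent control computed against untreated controls.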

The subject of a further experiment is Pythium ultimum. As to the kind of experiment: Fungal growth inhibition, treated disc on agar (PYT ULT). Type of experiment: cell-based. The settings on record: disc dipped in 500 mg/l, 29° C.; for inhibition at 500 µg/mL: Globisporangium ultimum, read-out: Percent Growth Inhibition, PYT ULT.
In the next experiment the test system is Scierotinia minor. As to the kind of experiment: Fungal growth inhibition, treated disc on agar (SCL MIN). It counts as cell-based. As to conditions: disc dipped in 500 mg/l, 29° C.; for inhibition at 500 µg/mL: read-out: Percent Growth Inhibition, SCL MIN.
A further experiment deals with Botrytis cinerea. As to the kind of experiment: Fungal growth inhibition, treated disc on agar (BOT CIN). The settings on record: disc dipped in 500 mg/l, 29° C.; for inhibition at 500 µg/mL: Botrytis cinerea, read-out: Percent Growth Inhibition, BOT CIN. It counts as cell-based.
The subject of another experiment is Colletotrichum gossypii. As to the kind of experiment: Fungal growth inhibition, treated disc on agar (COL GOS). Type of experiment: cell-based. The settings on record: disc dipped in 500 mg/l, 29° C.; for inhibition at 500 µg/mL: Colletotrichum gossypii, read-out: Percent Growth Inhibition, COL GOS.

As usually defined, the inhibition is the change of the read-out against control, counted positive when it falls.

The structures appear in SMILES notation.

Excerpt for Botrytis cinerea: (§1) Filter paper discs, each 11 mm. in diameter, were dipped in each of the test solutions. The discs were allowed to air dry to drive off the acetone solvent. A number of untreated discs were used as controls.
(§2) The treated and untreated discs were then placed on agar plates and one of the following fungus species: Septoria nodorum (SEP NOD), Botrytis cinerea (BOT CIN), Fusarium oxysporum (FUS OXY), Pythium ultimum (PYT ULT), Rhizoctonia solani (RHI SOL), Colletotrichum gossypii (COL GOS), and Scierotinia minor (SCL MIN), was added to the center of each disc in the form of a culture plug with the fungus mat in contact with the paper of the test disc. Cercosporidium personatum (CER PER), was added to discs as a spore suspension (20,000 spores/ml) to the disc (two drops of spore suspension per disc), rather than a mycelial culture plug. The plates were then incubated at 29° C. in an oven.
(§3) With the exception of the discs containing Cercosporidium personatum, the discs were evaluated by first measuring the radius from the center of the fungus colony on the treated discs and on the untreated discs. Percent growth inhibition of each of the compounds tested was determined as a function of the difference between the radius of the fungus colony on the treated disc versus the radius of the fungus colony on the untreated disc.
Excerpt for Pythium ultimum: as §1, §2, §3

As to `CCCCC(C#N)(CCc1ccc(OCCF)cc1)c1cccnc1` (stereo not drawn) [Compound 68], the pest or weed control at 1000 µg/mL in the experiment with Uromyces phaseoli came to 50%; in the experiment on Erysiphe polygoni, 100%. Further, the inhibition at 500 µg/mL in the experiment on Pythium ultimum turned out to be 40%; in the experiment with Scierotinia minor, 100%; in the experiment with Botrytis cinerea it was 100%; in the experiment on Colletotrichum gossypii, 100%.
As for `CCCCC(C#N)(CCc1ccc(OCCC)cc1)c1cccnc1` (stereo not drawn) [Compound 69], the “Percent Reduction of Disease, URO PHA” value in the experiment on Uromyces phaseoli was found to be 0%. Besides, the “Percent Reduction of Disease, ERY POL” value in the experiment on Erysiphe polygoni came out at 100%. For the same molecule, in the experiment with Pythium ultimum, the “Percent Growth Inhibition, PYT ULT” value was found to be 35%. Also, the “Percent Growth Inhibition, SCL MIN” value in the experiment on Scierotinia minor is on record as 100%. For the same molecule, in the experiment with Botrytis cinerea, the “Percent Growth Inhibition, BOT CIN” value was found to be 70%. In addition, in the experiment with Colletotrichum gossypii, the “Percent Growth Inhibition, COL GOS” value stood at 100%.
As to `C=CCC(C#N)(CCCc1ccccc1OC)c1cccnc1` (stereo not drawn) [Compound 70], the figures for the pest or weed control at 1000 µg/mL with Uromyces phaseoli and in the experiment on Erysiphe polygoni were 17% and 92%, respectively. Also, the inhibition at 500 µg/mL in the experiment with Pythium ultimum amounted to 49%; in the experiment on Scierotinia minor, 100%; in the experiment on Botrytis cinerea it was 100%; with Colletotrichum gossypii, 100%.
Regarding `CCCC(C#N)(CCCc1ccccc1OC)c1cccnc1` (stereo not drawn) [Compound 71], the figures for the pest or weed control at 1000 µg/mL in the experiment with Uromyces phaseoli and in the experiment on Erysiphe polygoni were 92% and 100%, respectively. Further, the inhibition at 500 µg/mL was determined as 60% with Pythium ultimum, 100% in the experiment on Scierotinia minor, 100% in the experiment on Botrytis cinerea and 100% in the experiment on Colletotrichum gossypii.
On to `CCCC(C#N)(CCc1ccccc1C(F)(F)F)c1cccnc1` (stereo not drawn) [Compound 72], for which the pest or weed control at 1000 µg/mL was 0% in the experiment with Uromyces phaseoli and 92% in the experiment on Erysiphe polygoni. Also, the inhibition at 500 µg/mL is 71% with Pythium ultimum, 100% in the experiment with Scierotinia minor, 100% in the experiment on Botrytis cinerea and 100% with Colletotrichum gossypii.
As to `CCCCC(C#N)(CCc1ccccc1C(F)(F)F)c1cccnc1` (stereo not drawn) [Compound 73], the pest or weed control at 1000 µg/mL in the experiment with Uromyces phaseoli and in the experiment on Erysiphe polygoni was 100% in each case. Besides, the inhibition at 500 µg/mL was determined as 69% in the experiment with Pythium ultimum, 100% in the experiment with Scierotinia minor, 100% with Botrytis cinerea and 85% in the experiment with Colletotrichum gossypii.
As for `CCCCC(C#N)(CCc1ccccc1F)c1cccnc1` (stereo not drawn) [Compound 74], the pest or weed control at 1000 µg/mL was determined as 92% in the experiment with Uromyces phaseoli and 100% with Erysiphe polygoni. In addition, the inhibition at 500 µg/mL in the experiment on Pythium ultimum was determined as 36%; in the experiment with Scierotinia minor it was 100%; in the experiment with Botrytis cinerea it was 100%; in the experiment on Colletotrichum gossypii, 100%.
For `CCCC(C#N)(CCc1ccccc1F)c1cccnc1` (stereo not drawn) [Compound 75], the pest or weed control at 1000 µg/mL in the experiment with Uromyces phaseoli amounted to 83%; in the experiment on Erysiphe polygoni it was 100%. Further, the inhibition at 500 µg/mL in the experiment with Pythium ultimum is 1%; in the experiment with Scierotinia minor, 92%; in the experiment with Botrytis cinerea it was 100%; with Colletotrichum gossypii, 100%.
As for `CCCCC(C#N)(CCCc1ccc(OC)cc1)c1cccnc1` (stereo not drawn) [Compound 76], the pest or weed control at 1000 µg/mL with Uromyces phaseoli stood at 67%; in the experiment with Erysiphe polygoni, 100%. Also, the inhibition at 500 µg/mL is 0% with Pythium ultimum, 100% in the experiment on Scierotinia minor, 100% in the experiment with Botrytis cinerea and 100% in the experiment with Colletotrichum gossypii.
In the case of `N#CC(CCc1ccc(F)cc1)(CCC(F)(F)F)c1cccnc1` (stereo not drawn) [Compound 77], the pest or weed control at 1000 µg/mL was determined as 90% in the experiment with Uromyces phaseoli and 100% with Erysiphe polygoni. The inhibition at 500 µg/mL was found to be 30% in the experiment with Pythium ultimum, 40% with Scierotinia minor, 65% in the experiment with Botrytis cinerea and 15% with Colletotrichum gossypii.
As for `N#CC(CCCC(F)(F)F)(CCc1ccc(F)cc1)c1cccnc1` (stereo not drawn) [Compound 78], the results for the pest or weed control at 1000 µg/mL in the experiment on Uromyces phaseoli and in the experiment with Erysiphe polygoni were 83% and 92%, respectively. Moreover, the inhibition at 500 µg/mL was 0% in the experiment on Pythium ultimum, 20% in the experiment with Scierotinia minor, 34% in the experiment on Botrytis cinerea and 50% in the experiment with Colletotrichum gossypii.
For the molecule `Cc1ccc(CCC(C#N)(CCCC(F)(F)F)c2cccnc2)cc1` (stereo not drawn) [Compound 79], the pest or weed control at 1000 µg/mL was found to be 0% in the experiment on Uromyces phaseoli and 100% with Erysiphe polygoni. Further, the inhibition at 500 µg/mL was 0% in the experiment on Pythium ultimum, 5% in the experiment with Scierotinia minor, 0% in the experiment with Botrytis cinerea and 30% in the experiment with Colletotrichum gossypii.
As to `Cc1ccc(CCC(C#N)(CCC(F)(F)F)c2cccnc2)cc1` (stereo not drawn) [Compound 80], the results for the pest or weed control at 1000 µg/mL in the experiment on Uromyces phaseoli and in the experiment with Erysiphe polygoni were 83% and 100%, respectively. The inhibition at 500 µg/mL in the experiment on Pythium ultimum amounted to 7%; with Scierotinia minor, 5%; in the experiment with Botrytis cinerea, 9%; in the experiment on Colletotrichum gossypii it was 59%.
On to `Cc1ccc(CCC(C#N)(CCCF)c2cccnc2)cc1` (stereo not drawn) [Compound 81], for which the results for the pest or weed control at 1000 µg/mL with Uromyces phaseoli and with Erysiphe polygoni were 90% and 100%, respectively. For the same molecule, the inhibition at 500 µg/mL is 20% in the experiment with Pythium ultimum, 0% in the experiment on Scierotinia minor, 30% in the experiment on Botrytis cinerea and 20% in the experiment on Colletotrichum gossypii.

For the origin of these results see US5945436A, “Pyridylmethyl nitriles, amides and thioamides useful as fungicides” (Uniroyal Chemical Company, Inc., priority 1997, dated 1999).
